Measured values from patent US20130156701A1, “METHOD OF PREPARING ETHACRYNIC AMIDE DERIVATIVES AND APPLICATION THEREOF” (NATIONAL TSING HUA UNIVERSITY, priority 2011, published 2013).

Key:
[1] = parent ethacrynic acid, comparison value; cited from earlier work
293T cells = assay: trypan blue exclusion assay, cell viability after FBuEA treatment; format: cell-based, human; conditions: 48 hr, read-out: IC50 (concentration required to decrease 50% cell viability)
Description: (§1) Human lung cancer cell line A549, human erythroleukemia cell line (HEL) and human embryonic kidney 293T cell line were cultivated in the RPMI-1640 medium (GIBCO) supplemented with 10% fetal bovine serum, 100 U/mL penicillin, 0.1 mg/mL streptomycin and 2 mM L-glutamine (GIBCO) at 37° C. in 5% CO2 incubator. 293T was a non-tumorigenic cell line as a […] control in cell viability experiment.
(§2) To detect the cytotoxicity effects of FBuEA (compound of formula 10), A549 and HEL were treated with different concentration of FBuEA for 48 hr and compared with 293T. For the cytotoxicity study, trypan blue exclusion assay was performed to quantity the cell viability, 5×10^4 cells and the medium with different concentration of FBuEA (from 0 to 20 µM) were loaded in the 48-well plates for 48 hr. After 48 hr, cells mixed with trypan blue (GIBICO), just count the cells that have excluded the dye. Each count repeated three times and calculated the average of concentration. The cytotoxicity effects of EBuEA to A549, HEL and 293T cells were indicated by IC50 value (comparing with untreated cells, the concentration of EBuEA required to decrease 50% cell viability).

A549 cells = assay: as above; format: cell-based, human; conditions: 48 hr, read-out: IC50 (concentration required to decrease 50% cell viability)
Description: as §1, §2

HEL cells = assay: as above; format: cell-based, human; conditions: 48 hr, read-out: IC50 (concentration required to decrease 50% cell viability)
Description: as §1, §2

[2] = PET imaging of the liver of the TAA-treated CCA rat; format: in vivo; conditions: CCA rat receiving TAA for 18 weeks
Description: The rats were anesthetized using 1 L/min 2% isoflurane (100% oxygen). After the rats had been anesthetized, they were given ^18F-FBuEA (11 MBq) via the lateral tail vein. After the injection, the rats were fixed in the prone position on a carbon bed.
Dynamic imaging (0-120 min) single-frame scans were acquired with a small-animal PET camera (microPET R4; Concorde Microsystems Inc.). The region of interest (ROI) was disposed in the tumor region by hand, the image reconstructions of ROI were processed with ASIPro software (Concorde Microsystems INC.). Using microPET, the tumor volumes were determined by the intake of ^18F-FBuEA (% ID/g).
Being a promising imaging probe, [^18F]FBuEA should be capable of detecting a disease at its early stage. […] Then the CCA rat along with the normal rat was subsequently imaged with [^18F]FBuEA 5 days later. […] The same CCA rat after feeding for 23 weeks of TAA was imaged again with [^18F]FBuEA but the imaging time was shortened to 5-10 min for optimization test (FIG. 11(D) and (E)). Whereas the tumor lesion was still dark and the cold spot was similar to that of 18 week rat. From the above comparisons, the optimized imaging sampling times appeared to be 0-30 min.

For `C=C(CC)C(=O)c1ccc(OCC(=O)O)c(Cl)c1Cl` [ethacrynic acid], the plasma half-life [1] is listed as 30 to 60 min.
Work on `C=C(CC)C(=O)c1ccc(OCC(=O)NCCCCF)c(Cl)c1Cl` [FBuEA, N-(4-fluorobutyl)ethacrynic amide] yielded an IC50 (293T cells) of 20 µM, an IC50 (A549 cells) of 14 µM and an IC50 (HEL cells) of 5 µM.
For `OC[C@H]1OC(O)[C@H]([18F])[C@@H](O)[C@@H]1O` (some centres unmarked) [[^18F]FDG, [^18F]fluorodeoxyglucose, reference compound], the “PET signal at the tumor lesion” value [2] was “significant hot spot”.
